The values below come from publication PMC9982066, “Inhibition of Ehrlichia chaffeensis infection by cell-permeable macrocyclic peptides that bind type IV secretion effector Etf-1” (PNAS Nexus, 2023).

Starred links: 1 amine or outer side, 2 acyl side, 3 side chain; linkers in the order of their positions; H or OH if unused. Positions of bridges follow the written chain, without caps; N, C: chain ends. Non-standard residues stand in square brackets, D forms with d. Residues, ends and D or L forms follow the SMILES beside them. Trimesoyl = O=C(c1cc(C(=O)[*:2])cc(C(=O)[*:3])c1)[*:1]; Phe(4-Cl) = N[C@@H](Cc1ccc(Cl)cc1)C(=O)O; Phe(4-F) = N[C@@H](Cc1ccc(F)cc1)C(=O)O; d2Nal = N[C@H](Cc1ccc2ccccc2c1)C(=O)O; Orn = NCCC[C@H](N)C(=O)O; Dap = NC[C@H](N)C(=O)O

Assay [1] addresses T1, Etf-1 (Ehrlichia chaffeensis, UniProt Q2GG12). The assay can be described thus: FP assay of Etf-1 binding with FAM-labeled peptides. Here is the method: The peptides were labeled at their C-terminus with carboxyfluorescein (FAM) through a β-Ala-β-Ala-Lys linker and evaluated for binding to Etf-1 by using a fluorescence polarization (FP) assay. […] This outcome is not unexpected, as screening OBOC libraries is often complicated by false positives, due to the presence of high ligand densities on library beads ([28]).
(§1) Fig. 2. Determination of binding affinity of Etf-1-binding peptides by FP assay. […] FAM-labeled peptide (50 nM) was incubated with serially diluted Etf-1 (starting from 25–30 μM in PBS, pH 7.4, supplemented with 5 mM DTT and 0.01% Triton X-100) for 1 h at RT. FP values were measured on a Tecan Infinite M1000 Pro plate reader. Titration curves (n ≥ 3) were fitted using GraphPad Prism and analyzed with TraceDrawer to calculate dissociation constants (KD). […] Data were analyzed using GraphPad Prism and fitted to a four-parameter variable slope equation to determine IC50 values.
Etf-1 and macrocyclic peptides were serially diluted in PBS supplemented with 5 mM DTT and 0.01% Triton X-100 (v/v). FAM-labeled peptides (50 nM) were prepared from a 10-μM DMSO stock and incubated with serially diluted Etf-1 for 1 h at room temperature (RT). Twenty microliters of the solutions were transferred to a black 384-well plate (Greiner Bio-One) and FP values were measured on a Tecan Infinite M1000 Pro plate reader with excitation and emission wavelengths at 470 and 535 nm, respectively. Titration curves (n ≥ 3) were fitted using GraphPad Prism v8.0 (GraphPad, La Jolla, CA, USA), and analyzed with TraceDrawer software v1.8 (Ridgeview Instruments AB, Uppsala, Sweden) to calculate the dissociation constant (KD, in nM).

Assay [2] addresses T1, Etf-1. The assay can be described thus: biochemical. To be noted: unlabeled competitor peptides vs FAM-B7-133-8. It counts as binding. Here is the method: as §1
Serial dilutions of competitor peptide (0-20 μM) were prepared from DMSO stock solutions into PBS containing 0.01% Triton-X100 and 2 mM TCEP and added to aliquots of the equilibrated Etf-1/probe solution. After incubation for 1 h in the dark and with gentle mixing, 20 μL of each sample was transferred into 384-well black-on-black microplates and FP was measured using a TECAN Infinite M1000 plate reader. Data were analyzed using GraphPad PRISM ver. 8.0 and fit to a four-parameter variable slope equation to determine IC50 values. IC50 values reported are the mean ± SD of n = 2–4 independent experiments.

For assay [3], the system named is E. chaffeensis. The assay can be described thus: E. chaffeensis infection of THP-1 cells, qPCR of 16S rRNA gene normalized to human actin. It counts as cell-based, Ehrlichia chaffeensis. To be noted: 10 μM, 2 days, vs DMSO control. The procedure:
Therefore, we investigated whether these Etf-1-binding peptides can prevent the proliferation of E. chaffeensis inside host cells. THP-1 cells were infected with E. chaffeensis, then treated with the peptides at 30 min post infection (pi) for 2 days. Intracellular infection and proliferation of E. chaffeensis inside host THP-1 cells were assessed using quantitative PCR (qPCR) analysis based on E. chaffeensis 16S rRNA gene normalized by human actin (ACT) gene.
Fig. 5. Effects of Etf-1-binding peptides on E. chaffeensis infection of THP-1 cells. Ehrlichia chaffeensis-infected THP-1 cells at […] were incubated with 10 μM of Etf-1-binding macrocyclic peptide or DMSO control for 2 days.
No antibiotic was used throughout the study.
DNA was extracted from each sample using Qiagen blood mini kit according to the manufacturer's instructions (Qiagen, Valencia, CA, USA), and qPCR analysis was performed in an MX3000P qPCR instrument (Stratagene, San Diego, CA, USA) using SYBR Green Real-Time PCR Master Mix (Thermo Fisher Scientific) according to the manufacturer's instructions. Five-fold serial dilutions of the control group were used to generate a standard curve to calculate the relative copy numbers of E. chaffeensis 16S rRNA normalized against human actin genes using the MX3000P software from Stratagene as described previously ([18], [44]).
(In general: Quantitative PCR measures a nucleic acid by following its amplification.)

Assay [4] has as its system E. chaffeensis. The assay can be described thus: morphological examination of E. chaffeensis infection of THP-1 cells by Diff-Quik staining. The following applies: THP-1 cells, Fig. S4 (with Figs. 5, S3). Here is the method:
Ehrlichia chaffeensis Arkansas strain ([43]) was cultured in THP-1 cells (ATCC, Manassas, VA, USA) in RPMI 1640 medium (Corning, Manassas, VA, USA) supplemented with 8% FBS (Atlanta Biologicals, Flowery Branch, GA, USA) and 4 mM L-glutamine (at 37°C under 5% CO2 in a humidified atmosphere. THP-1 cells were seeded at 1 × 10^5 cells/well (in 1.5-mL RPMI 1640 culture medium with 8% FBS, 4 mM L-Gln) in a 12-well plate, then infected with host cell-free E. chaffeensis at an MOI (multiplicity of infection, or numbers of bacteria per cell) of ∼30. Cells were cultured in a humidified incubator with 5% CO2 and 95% air. No antibiotic was used throughout the study. At 0.5 h post infection (pi), cells were incubated with 1–10 μM of peptides or with an equal volume of DMSO (solvent control, 2 μL per mL medium). At 2 days pi, cells were washed with 1 mL of PBS, and two drops of cells were cytospun onto glass slides by a Shandon Cytospin 4 cytocentrifuge (Thermo Fisher Scientific), then fixed and stained with HEMA 3 staining solutions (Thermo Fisher Scientific). Ehrlichia infection was observed and images were captured by a SPOT RT digital camera (Diagnostic Instruments, Sterling Heights, MI, USA) coupled to a Nikon Eclipse E400 microscope (Nikon, Melville, NY, USA).

In another assay the test system is BECN1 binding to Etf-1. The assay can be described thus: streptavidin magnetic beads pull-down of BECN1 with biotin-Etf-1, Western blot. The following applies: 10 µM peptide; for BECN1/Etf-1 Ratio: band intensities, DMSO control set as 1, Fig. 8B. Format: biochemical. The procedure: Fig. 8.
Streptavidin magnetic beads (15 µL, Pierce, Rockford, IL, USA) were washed with 1 mL of Bind/Wash buffer (25 mM Tris, pH 7.4; 250 mM NaCl, 0.1% Tween 20), and incubated with 0.15 µg ([…] final concentration) of biotinylated full-length Etf-1 protein in bind/wash buffer at 4°C overnight with end-to-end rotation. Beads were washed three times with Bind/Wash buffer, then incubated with Etf-1-binding macrocyclic peptides (10 µM) or DMSO control in Bind/Wash buffer at room temperature for 2 h. […] Beads were washed three times, and proteins were eluted from the beads with 50 µL of 2× SDS-sample buffer. […] Reacting bands were visualized with enhanced chemiluminescence by incubating the membrane with LumiGLO chemiluminescent reagent (Thermo Fisher Scientific). Images were captured by Amersham Imager 680 (GE Healthcare) and densitometry analysis was performed using ImagQuaNT (GE Healthcare). In each specimen, band intensities were normalized against those of actin as the loading control, and the ratios of the treatment group to the control group were calculated with the value in the control groups arbitrarily set as 1.0.

T1 sequence (Q2GG12 entry or part of it): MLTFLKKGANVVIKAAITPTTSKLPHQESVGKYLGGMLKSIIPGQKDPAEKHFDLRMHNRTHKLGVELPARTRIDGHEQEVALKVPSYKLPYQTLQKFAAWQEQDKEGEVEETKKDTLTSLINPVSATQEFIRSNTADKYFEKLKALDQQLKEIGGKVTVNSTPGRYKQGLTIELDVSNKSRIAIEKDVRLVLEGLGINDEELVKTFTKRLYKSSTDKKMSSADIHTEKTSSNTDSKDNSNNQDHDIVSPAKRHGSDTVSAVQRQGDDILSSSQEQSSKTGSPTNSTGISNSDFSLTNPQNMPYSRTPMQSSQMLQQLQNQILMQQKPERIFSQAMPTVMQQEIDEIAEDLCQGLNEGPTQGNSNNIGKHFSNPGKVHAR

Take `CC(C)C[C@H]1NC(=O)[C@H](Cc2ccc(F)cc2)NC(=O)[C@H](CCCN)NC(=O)[C@H](CC(=O)O)NC(=O)[C@H](CC(=O)O)NC(=O)[C@@H](C(C)C)NC(=O)[C@H](Cc2ccc(O)cc2)NC(=O)c2cc3cc(c2)C(=O)NC[C@H](NC1=O)C(=O)N[C@@H](Cc1ccc(Cl)cc1)C(=O)N[C@H](Cc1ccc2ccccc2c1)C(=O)N[C@H](CCCNC(=N)N)C(=O)N[C@@H](CCCNC(=N)N)C(=O)N[C@H](CCCNC(=N)N)C(=O)N[C@@H](CCCNC(=N)N)C(=O)N[C@H](C(N)=O)CNC3=O` [Peptide B7-95-2, TMA-Tyr-val-Asp-Asp-Orn-Fpa-leu-Dap-4-ClPhe-nal-arg-Arg-arg-Arg-Dap] (Y[dV]DD[Orn][Phe(4-F)][dL][Dap][Phe(4-Cl)][d2Nal][dR]R[dR]R[Dap]-NH2; linker N-8-15 via Trimesoyl): the affinity on Etf-1 [1], expressed as Kd, was 0.74 ± 0.06 µM. The “competition for Etf-1 binding” value on Etf-1 [2] is listed as “Competition for Etf-1 binding was observed”. For the same compound, the “inhibition of E. chaffeensis infection” value with E. chaffeensis [3] is on record as “significantly inhibited”. Further, the “E. chaffeensis infection (numbers and sizes of morulae)” value with E. chaffeensis [4] is recorded as “significantly inhibited”.
As for `CC(C)C[C@H]1NC(=O)[C@H](Cc2ccc(F)cc2)NC(=O)[C@@H](Cc2ccc(O)cc2)NC(=O)[C@@H](CC(C)C)NC(=O)[C@@H](C(C)C)NC(=O)[C@H](Cc2ccc(O)cc2)NC(=O)c2cc3cc(c2)C(=O)NC[C@H](NC1=O)C(=O)N[C@@H](Cc1ccc(Cl)cc1)C(=O)N[C@H](Cc1ccc2ccccc2c1)C(=O)N[C@H](CCCNC(=N)N)C(=O)N[C@@H](CCCNC(=N)N)C(=O)N[C@H](CCCNC(=N)N)C(=O)N[C@@H](CCCNC(=N)N)C(=O)N[C@H](C(N)=O)CNC3=O` [Peptide B7-133-9, TMA-Tyr-val-leu-tyr-Fpa-leu-Dap-4-ClPhe-nal-arg-Arg-arg-Arg-Dap] (Y[dV][dL][dY][Phe(4-F)][dL][Dap][Phe(4-Cl)][d2Nal][dR]R[dR]R[Dap]-NH2; linker N-7-14 via Trimesoyl), the “competition for Etf-1 binding” value at Etf-1 [2] was “Competition for Etf-1 binding was observed”. Besides, the “E. chaffeensis infection (numbers and sizes of morulae)” value with E. chaffeensis [4] is “only slightly reduced”. Also, the “BECN1/Etf-1 Ratio” value in the assay with BECN1 binding to Etf-1 was determined as 1.19.
On to “TMA-Tyr-Phg-Orn-ala-Ieu-Orn-leu-Dap-4-ClPhe-nal-arg-Arg-arg-Arg-Dap [Peptide B7-131-3]”, for which the “competition for Etf-1 binding” value at Etf-1 [2] is “Competition for Etf-1 binding was observed”.
Consider `CC(C)[C@H]1NC(=O)[C@@H](CCC(=O)O)NC(=O)c2cc3cc(c2)C(=O)NC[C@H](NC(=O)CNC(=O)[C@H](Cc2c[nH]c4ccccc24)NC(=O)[C@H](Cc2ccc(O)cc2)NC1=O)C(=O)N[C@@H](Cc1ccccc1)C(=O)N[C@H](Cc1ccc2ccccc2c1)C(=O)N[C@H](CCCNC(=N)N)C(=O)N[C@@H](CCCNC(=N)N)C(=O)N[C@H](CCCNC(=N)N)C(=O)N[C@@H](CCCNC(=N)N)C(=O)N[C@H](C(N)=O)CNC3=O` [Peptide C8, TMA-glu-val-Tyr-Trp-Gly-Dap-Phe-nal-arg-Arg-arg-Arg-Dap] ([dE][dV]YWG[Dap]F[d2Nal][dR]R[dR]R[Dap]-NH2; linker N-6-13 via Trimesoyl), for which, at Etf-1 [1], the affinity, expressed as Kd, was 5 ± 1.2 µM. In the assay with E. chaffeensis [3], the “inhibition of E. chaffeensis infection” value is given as “significantly inhibited”. For the same compound, the “E. chaffeensis infection (numbers and sizes of morulae)” value with E. chaffeensis [4] is listed as “significantly inhibited”. Besides, the “disruption of BECN1 binding to Etf-1” value in the assay on BECN1 binding to Etf-1 (compared to DMSO control) is on record as “disrupted BECN1 binding to Etf-1”. For the same compound, in the assay on BECN1 binding to Etf-1, the “BECN1/Etf-1 Ratio” value is recorded as 0.14.

In general, Kd refers to the equilibrium constant for the complex coming apart.
